# Like-named read-outs stand apart in the source and are kept apart here.
# Experimental: The contents of the IV bag were infused over a two hour period. […] Each patient was dosed on a 28 day cycle, comprising an infusion once a week for the first three weeks of the cycle on days 1, 8, and 15 of each cycle, with no dose administered in the week following the third dose.
# [1] = Table V, 2 hour IV infusion, 0.66 mg/M^2
# [2] = Table V, 2 hour IV infusion, 1.85 mg/M^2
# [3] = Table V, 2 hour IV infusion, 2.59 mg/M^2
# [4] = Table V, 2 hour IV infusion, 3.63 mg/M^2
# [5] = Table V, 2 hour IV infusion, 3.7 mg/M^2
# [6] = Table V, 2 hour IV infusion, 7.4 mg/M^2
# [7] = Table V, 2 hour IV infusion, 14.8 mg/M^2
# [8] = Table V, 2 hour IV infusion, 29.6 mg/M^2
# [9] = Table V, 2 hour IV infusion, 41.4 mg/M^2
# [10] = Table V, 2 hour IV infusion, […]^2
# [11] = Table VI, 2 hour IV infusion, 1.85 mg/m^2, N 1
# [12] = Table VI, 2 hour IV infusion, 3.7 mg/m^2, N 1
# [13] = Table VI, 2 hour IV infusion, 7.4 mg/m^2, N 1
# [14] = Table VI, 2 hour IV infusion, 14.8 mg/m^2, N 1
# [15] = Table VI, 2 hour IV infusion, 29.6 mg/m^2, N 6
# [16] = Table VI, 2 hour IV infusion, 41.4 mg/m^2, N 6
# [17] = Table VI, 2 hour IV infusion, 50 mg/m^2, N 10
# [18] = Table VI, 2 hour IV infusion, 58 mg/m^2, N 3
# [19] = Table VII, 2 hour IV infusion, 1.85 mg/m^2, N 1
# [20] = Table VII, 2 hour IV infusion, 3.7 mg/m^2, N 1
# [21] = Table VII, 2 hour IV infusion, 7.4 mg/m^2, N 1
# [22] = Table VII, 2 hour IV infusion, 14.8 mg/m^2, N 1
# [23] = Table VII, 2 hour IV infusion, 29.6 mg/m^2, N 5
# [24] = Table VII, 2 hour IV infusion, 41.4 mg/m^2, N 6
# [25] = Table VII, 2 hour IV infusion, 50 mg/m^2, N 10
# [26] = Table VII, 2 hour IV infusion, 58 mg/m^2, N 3
# [27] = Table VIII cumulative data, Day 1, 2-hour IV infusion, 0.66 mg/m^2, N 1
# [28] = Table VIII cumulative data, Day 1, 2-hour IV infusion, 1.32 mg/m^2, N 1
# [29] = Table VIII cumulative data, Day 1, 2-hour IV infusion, 1.85 mg/m^2, N 5
# [30] = Table VIII cumulative data, Day 1, 2-hour IV infusion, 1.85 mg/m^2, N = 4
# [31] = Table VIII cumulative data, Day 1, 2-hour IV infusion, 2.59 mg/m^2, N 3
# [32] = Table VIII cumulative data, Day 1, 2-hour IV infusion, 2.59 mg/m^2, N = 2
# [33] = Table VIII cumulative data, Day 1, 2-hour IV infusion, 3.63 mg/m^2, N 7
# [34] = Table VIII cumulative data, Day 1, 2-hour IV infusion, 3.63 mg/m^2, N = 6
# [35] = Table VIII cumulative data, Day 1, 2-hour IV infusion, 3.7 mg/m^2, N 1
# [36] = Table VIII cumulative data, Day 1, 2-hour IV infusion, 5.08 mg/m^2, N 3
# [37] = Table VIII cumulative data, Day 1, 2-hour IV infusion, 7.11 mg/m^2, N 1
# [38] = Table VIII cumulative data, Day 1, 2-hour IV infusion, 7.4 mg/m^2, N 1
# [39] = Table VIII cumulative data, Day 1, 2-hour IV infusion, 14.8 mg/m^2, N 1
# [40] = Table VIII cumulative data, Day 1, 2-hour IV infusion, 29.6 mg/m^2, N 6
# [41] = Table VIII cumulative data, Day 1, 2-hour IV infusion, 29.6 mg/m^2, N = 5
# [42] = Table VIII cumulative data, Day 1, 2-hour IV infusion, 41.4 mg/m^2, N 6
# [43] = Table VIII cumulative data, Day 1, 2-hour IV infusion, 50 mg/m^2, N 10
# [44] = Table VIII cumulative data, Day 1, 2-hour IV infusion, 58 mg/m^2, N 3
# [45] = Table VIII cumulative data, Day 1, 2-hour IV infusion, […]^2, N 1
smiles,measurement,setting,value
CCc1cnn2c(NCc3ccc[n+]([O-])c3)cc(N3CCCC[C@H]3CCO)nc12 [Formula II],drug accumulation,"1.85 mg/m^2 on days 1, 8, 15 of 28 day cycle",drug accumulation is not evident
same,dosage at which plasma levels of 25 nM (10 ng/mL) are available,2-hour infusions,greater than 1.32 mg/m^2
same,AUC,[1],32.1 ng·h/mL
same,CL,[1],20.6 L/(hr m^2)
same,Cmax,[1],18.6 ng/mL
same,t1/2,[1],1.48 h
same,Cmax,"Table V, 2 hour IV infusion, 1.32 mg/M^2",63.8 ng/mL
same,AUC,[2],201.2 (38) ng hr/mL
same,CL,[2],10.2 (36) L/(hr m^2)
same,Cmax,[2],95.7 (26) ng/mL
same,t1/2,[2],2.29 (45) hours
same,AUC,[3],213 (35) ng hr/mL
same,CL,[3],12.9 (35) L/(hr m^2)
same,t1/2,[3],3.0 (1) hours
same,AUC,[4],423 (91) ng hr/mL
same,CL,[4],14.7 (91) L/(hr m^2)
same,Cmax,[4],163 (63) ng/mL
same,t1/2,[4],2.56 (38) hours
same,AUC,[5],336 ng·h/mL
same,CL,[5],11.0 L/(hr m^2)
same,Cmax,[5],136 ng/mL
same,t1/2,[5],2.75 h
same,AUC,[6],972 ng·h/mL
same,CL,[6],7.62 L/(hr m^2)
same,Cmax,[6],353 ng/mL
same,t1/2,[6],2.86 h
same,AUC,[7],1053 ng·h/mL
same,CL,[7],14.1 L/(hr m^2)
same,Cmax,[7],396 ng/mL
same,t1/2,[7],2.78 h
same,AUC,[8],2434 (45) ng hr/mL
same,CL,[8],14.0 (40) L/(hr m^2)
same,Cmax,[8],890 (44) ng/mL
same,t1/2,[8],2.98 (11) hours
same,AUC,[9],3041 (51) ng hr/mL
same,Cmax,[9],1343 (48) ng/mL
same,t1/2,[9],2.80 (29) hours
same,CL,[10],13.1 L/(hr m^2)
same,t1/2,[10],2.01 h
same,AUC(tf) Mean,[11],134 ng·h/mL
same,Cmax Mean,[11],62.5 ng/mL
same,Tmax Median,[11],1 h
same,tf Median,[11],8 h
same,AUC(tf) Mean,[12],336 ng·h/mL
same,Cmax Mean,[12],136 ng/mL
same,Tmax Median,[12],2 h
same,tf Median,[12],24 h
same,AUC(tf) Mean,[13],970 ng·h/mL
same,Cmax Mean,[13],353 ng/mL
same,Tmax Median,[13],2 h
same,tf Median,[13],24 h
same,AUC(tf) Mean,[14],1050 ng·h/mL
same,Cmax Mean,[14],396 ng/mL
same,Tmax Median,[14],2 h
same,tf Median,[14],24 h
same,AUC(tf) Mean,[15],2040 ng·h/mL
same,Cmax Mean,[15],890 ng/mL
same,Tmax Median,[15],1 h
same,tf Median,[15],24 h
same,AUC(tf) Mean,[16],2870 ng·h/mL
same,Cmax Mean,[16],1300 ng/mL
same,Tmax Median,[16],2 h
same,tf Median,[16],24 h
same,AUC(tf) Mean,[17],4050 ng·h/mL
same,Cmax Mean,[17],1820 ng/mL
same,Tmax Median,[17],1.5 h
same,tf Median,[17],24 h
same,AUC(tf) Mean,[18],3290 ng·h/mL
same,Cmax Mean,[18],1460 ng/mL
same,Tmax Median,[18],1 h
same,tf Median,[18],24 h
same,AUC(I) Mean,[19],136 ng·h/mL
same,CL Mean,[19],13.6 L/hr/m^2
same,t½ Mean,[19],1.42 h
same,AUC(I) Mean,[20],336 ng·h/mL
same,CL Mean,[20],11.0 L/hr/m^2
same,t½ Mean,[20],2.75 h
same,AUC(I) Mean,[21],972 ng·h/mL
same,CL Mean,[21],7.62 L/hr/m^2
same,t½ Mean,[21],2.86 h
same,AUC(I) Mean,[22],1050 ng·h/mL
same,CL Mean,[22],14.1 L/hr/m^2
same,t½ Mean,[22],2.78 h
same,AUC(I) Mean,[23],2430 ng·h/mL
same,CL Mean,[23],14.0 L/hr/m^2
same,t½ Mean,"Table VII, 2 hour IV infusion, 29.6 mg/m^2, n = 4",2.98 h
same,AUC(I) Mean,[24],2890 ng·h/mL
same,CL Mean,[24],26.8 L/hr/m^2
same,t½ Mean,[24],2.84 h
same,AUC(I) Mean,[25],4090 ng·h/mL
same,CL Mean,[25],16.3 L/hr/m^2
same,t½ Mean,[25],2.90 h
same,AUC(I) Mean,[26],3300 ng·h/mL
same,CL Mean,[26],19.7 L/hr/m^2
same,t½ Mean,[26],3.15 h
same,AUC(I) Mean,[27],32.1 ng·h/mL
same,CL Mean,[27],20.6 L/hr/m^2
same,Cmax Mean,[27],18.6 ng/mL
same,Tmax Median,[27],2 h
same,t½ Mean,[27],1.48 h
same,Cmax Mean,[28],63.8 ng/mL
same,Tmax Median,[28],2 h
same,Cmax Mean,[29],91.0 ng/mL
same,Tmax Median,[29],2 h
same,AUC(I) Mean,[30],201 ng·h/mL
same,CL Mean,[30],10.2 L/hr/m^2
same,t½ Mean,[30],2.29 h
same,Cmax Mean,[31],124 ng/mL
same,Tmax Median,[31],1 h
same,AUC(I) Mean,[32],213 ng·h/mL
same,CL Mean,[32],12.9 L/hr/m^2
same,t½ Mean,[32],3.02 h
same,Cmax Mean,[33],195 ng/mL
same,Tmax Median,[33],1 h
same,AUC(I) Mean,[34],446 ng·h/mL
same,CL Mean,[34],11.3 L/hr/m^2
same,t½ Mean,[34],2.63 h
same,AUC(I) Mean,[35],336 ng·h/mL
same,CL Mean,[35],11.0 L/hr/m^2
same,Cmax Mean,[35],136 ng/mL
same,Tmax Median,[35],2 h
same,t½ Mean,[35],2.75 h
same,AUC(I) Mean,[36],327 ng·h/mL
same,CL Mean,[36],15.9 L/hr/m^2
same,Cmax Mean,[36],173 ng/mL
same,Tmax Median,[36],2 h
same,t½ Mean,[36],3.19 h
same,AUC(I) Mean,[37],588 ng·h/mL
same,CL Mean,[37],12.1 L/hr/m^2
same,Cmax Mean,[37],347 ng/mL
same,Tmax Median,[37],1 h
same,t½ Mean,[37],3.16 h
same,AUC(I) Mean,[38],972 ng·h/mL
same,CL Mean,[38],7.62 L/hr/m^2
same,Cmax Mean,[38],353 ng/mL
same,Tmax Median,[38],2 h
same,t½ Mean,[38],2.86 h
same,AUC(I) Mean,[39],1050 ng·h/mL
same,CL Mean,[39],14.1 L/hr/m^2
same,Cmax Mean,[39],396 ng/mL
same,Tmax Median,[39],2 h
same,t½ Mean,[39],2.78 h
same,Cmax Mean,[40],890 ng/mL
same,Tmax Median,[40],1 h
same,AUC(I) Mean,[41],2430 ng·h/mL
same,CL Mean,[41],14.0 L/hr/m^2
same,t½ Mean,[41],2.98 h
same,AUC(I) Mean,[42],2890 ng·h/mL
same,CL Mean,[42],26.8 L/hr/m^2
same,Cmax Mean,[42],1300 ng/mL
same,Tmax Median,[42],2 h
same,t½ Mean,[42],2.84 h
same,AUC(I) Mean,[43],4090 ng·h/mL
same,CL Mean,[43],16.3 L/hr/m^2
same,Cmax Mean,[43],1820 ng/mL
same,Tmax Median,[43],1.5 h
same,t½ Mean,[43],2.90 h
same,AUC(I) Mean,[44],3300 ng·h/mL
same,CL Mean,[44],19.7 L/hr/m^2
same,Cmax Mean,[44],1460 ng/mL
same,Tmax Median,[44],1 h
same,t½ Mean,[44],3.15 h
same,CL Mean,[45],13.1 L/hr/m^2
same,Tmax Median,[45],1 h
same,t½ Mean,[45],2.01 h
same,clearance versus dose,dosages of from […]^2 to 41.4 mg/m^2,clearance is dosage independent
same,exposure (AUC) versus dose,"dosages of from […]^2 to 41.4 mg/m^2, day 1 and day 15",dose-proportional increases in exposure
same,AUC,"two hour infusion, 3.7 mg/M^2",about 336 ng hr/mL
same,Cmax,"two hour infusion, 3.7 mg/M^2",about 136 ng/ml
same,t1/2,"two hour infusion, 3.7 mg/M^2",about 2.75 hours
same,Cmax,"two hour infusion, 7.4 mg/M^2",about 353 ng/ml
same,t1/2,"two hour infusion, 7.4 mg/M^2",about 2.86 hours
same,Cmax,"two hour infusion, 14.8 mg/M^2",about 396 ng/ml
same,t1/2,"two hour infusion, 14.8 mg/M^2",about 2.78 hours
same,t1/2,"two hour infusion, 41.4 mg/M^2",about 2.8 hours
same,Cmax,"two hour infusion, 50 mg/M^2",about 1820 ng/ml
same,t1/2,"two hour infusion, 50 mg/M^2",about 2.9 hours
same,Cmax,"two hour infusion, 58 mg/M^2",about 1460 ng/ml
same,t1/2,"two hour infusion, 58 mg/M^2",about 3.2 hours

# From patent publication US20100286038A1, “FORMULATION CONTAINING CYCLIN-DEPENDENT KINASE INHIBITING COMPOUND AND METHOD OF TREATING TUMORS USING THE SAME” (priority 2007, published 2010)
